According to publication PMC3917155 (Journal of medicinal chemistry, 2013):

Test system: R2(VC)
Assay: cells
Set-up: species or system CHO sublines
Settings: 96 h, read-out: >1000

## Nc1nc2[nH]cc(CCCc3ccc(C(=O)N[C@@H](CCC(=O)O)C(=O)O)cc3)c2c(=O)[nH]1 [compound 7]
  IC50: > 1 µM

## Nc1nc2[nH]cc(CCCCc3ccc(C(=O)N[C@@H](CCC(=O)O)C(=O)O)cc3)c2c(=O)[nH]1 [compound 8]
  IC50: > 1 µM
